Experiment [1] has as its target T1, L858R/T790M/C797S EGFR (Homo sapiens, UniProt P00533, C797S/L858R/T790M).
T1 construct: expressed in transfected cells; host or cells: H1975 clone #25 (lentiviral over-expression, endogenous EGFR knocked out by sgRNA)
The experiment is described as follows: EGFR degradation HTRF assay in H1975-clone #25 (LTC) cells. The experiment is classed as cell-based. The settings on record: 16h treatment; for DC50: H1975 # 25-LTC (L858R/T790M/C797S), HTRF; for Dmax: NCI-H1975, H1975 # 25-LTC (L858R/T790M/C797S), maximum percentage of degradation. An outline of the steps: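 Cells carrying only lentiviral mutant EGFR, since endogenous alleles were removed by CRISPR, received compounds on day 2 for 16 h. Final concentrations ran from 10 uM down in 5-fold steps over 8 doses. After lysis, EGFR levels were quantified by HTRF and DC50 derived by curve fitting.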

The test system of experiment [2] is Del19/T790M/C797S EGFR. The experiment is described as follows: EGFR degradation HTRF assay in H1975-clone #28 (DTC) cells. In kind it is cell-based. The settings on record: H1975 # 28 DTC (Del19/T790M/C797S), 16h treatment; for DC50: HTRF; for Dmax (%): maximum percentage of degradation. The text has this: H1975-clone #28(Del19/T790M/C797S, or abbr: DTC), H1975-clone #23(Del19/C797S, or abbr: DC), H1975-clone #25(L858R/T790M/C797S, or abbr: LTC) and H1975-clone #8 (L858R/C797S, or abbr: LC). EGFR-Del19:T790M/C797S, EGFR-Del19/C797S, EGFR-L858R/T790M/C797S and EGFR-L858R/C797S were stably expressed in H1975 cell lines by lentivirus-mediated over-expression, respectively. The EGFR over-expressed cells then underwent knockout, in which the EGFR targeting sgRNA was designed to only target the endogenous EGFR copies and preserve the exogenous EGFR copies. Followed by the knockout, the edited H1975 cells were seeded in 96 well plates at the concentration of […], cultured for about 2 weeks to allow single clones formation. The formed clones were screened by DNA sequencing and whole exon sequencing analysis for the desired edition. H1975-clone #28, H1975-clone #23, H1975-clone #25 and H1975-clone #8 were finally confirmed as homozygous Del19/T790M/C797S EGFR, Dell9/C797S EGFR, L858R/T790M/C797S EGFR and L858R/C797S EGFR clones, respectively.
H1975-#25, H1975-#28, H1975-#23 and H1975-#8 cells are treated with compounds diluted in 0.2% DMSO cell culture medium on day 2, incubate for 16h, 37° C., 5% CO2. the final concentration of compounds in all assay is start with 10 uM, 5-fold dilution, total 8 doses were included.
After 16h treatment, add HTRF lysis buffer to each well; seal the plate and incubate 1 hour at room temperature on a plate shaker; Once the cells are lysed, 16 μL of cell lysate are transferred to a PE 384-well HTRF detection plate; 4 μL of pre-mixed HTRF antibodies are added to each well; Cover the plate with a plate sealer, spin 1000 rpm for 1 min, Incubate overnight at room temperature; Read on BMG PheraStar with HTRF protocol (337 nm-665 nm-620 nm).
The IC50 (DC50) value of a compound can be obtained by fitting the following equation
Y=Bottom+(TOP−Bottom)/(1+((IC50/X)^hillslope))
Wherein, X and Y are known values, and IC50, Hillslope, Top and Bottom are the parameters obtained by fitting with software. Y is the inhibition percentage (calculated from the equation), X is the concentration of the compound: IC50 is the concentration of the compound when the 50% inhibition is reached. The smaller the IC50 value is, the stronger the inhibitory ability of the compound is. Vice versa, the higher the IC50 value is, the weaker the ability the inhibitory ability of the compound is: Hillslope represents the slope of the fitted curve, generally around 1*; Bottom represents the minimum value of the curve obtained by data fitting, which is generally 0%±20%; Top represents the maximum value of the curve obtained by data fitting, which is generally 100%±20%. The experimental data were fitted by calculating and analyzing with Dotmatics data analysis software.

T1 sequence (P00533 25-1210 T790M/C797S/L858R): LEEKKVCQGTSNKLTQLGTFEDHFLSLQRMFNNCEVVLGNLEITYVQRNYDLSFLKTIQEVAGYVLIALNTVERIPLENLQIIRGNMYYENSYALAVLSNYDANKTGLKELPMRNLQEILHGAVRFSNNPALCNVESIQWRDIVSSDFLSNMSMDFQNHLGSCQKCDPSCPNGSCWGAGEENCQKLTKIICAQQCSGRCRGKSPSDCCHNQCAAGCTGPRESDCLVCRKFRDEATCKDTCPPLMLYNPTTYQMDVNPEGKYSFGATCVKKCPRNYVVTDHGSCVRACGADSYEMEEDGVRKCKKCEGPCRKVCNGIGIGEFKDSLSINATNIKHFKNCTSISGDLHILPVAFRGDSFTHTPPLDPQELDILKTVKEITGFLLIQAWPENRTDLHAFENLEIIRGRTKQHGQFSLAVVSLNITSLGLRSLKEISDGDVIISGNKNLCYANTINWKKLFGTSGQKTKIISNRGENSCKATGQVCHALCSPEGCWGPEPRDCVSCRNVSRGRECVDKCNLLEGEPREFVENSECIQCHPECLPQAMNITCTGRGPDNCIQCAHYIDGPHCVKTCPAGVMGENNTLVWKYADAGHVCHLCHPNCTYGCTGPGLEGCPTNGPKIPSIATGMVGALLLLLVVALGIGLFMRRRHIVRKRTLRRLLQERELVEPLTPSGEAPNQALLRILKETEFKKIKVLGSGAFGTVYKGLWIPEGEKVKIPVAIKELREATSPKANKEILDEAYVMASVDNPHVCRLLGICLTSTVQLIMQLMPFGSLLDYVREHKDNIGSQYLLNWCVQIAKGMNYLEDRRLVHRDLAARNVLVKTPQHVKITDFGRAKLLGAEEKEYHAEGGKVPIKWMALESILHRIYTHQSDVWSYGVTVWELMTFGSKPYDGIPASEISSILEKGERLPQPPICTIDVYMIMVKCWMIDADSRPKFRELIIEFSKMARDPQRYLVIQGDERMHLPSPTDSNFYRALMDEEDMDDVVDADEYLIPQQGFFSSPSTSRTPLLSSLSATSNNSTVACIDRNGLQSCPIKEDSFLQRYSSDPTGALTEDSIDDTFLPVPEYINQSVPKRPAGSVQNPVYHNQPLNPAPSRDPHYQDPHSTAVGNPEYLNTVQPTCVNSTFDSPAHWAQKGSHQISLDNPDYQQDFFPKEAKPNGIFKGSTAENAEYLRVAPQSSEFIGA

Regarding `CCN(C(=O)c1ccc2c(c1)N1C[C@H](C)CCCOc3c(cnn3C)-c3cc(cc(C)n3)C(=O)/N=C/1N2)C1CCN(CCc2cc(F)c([C@H]3CCC(=O)NC3=O)c(F)c2)CC1` [Example 241, (R,E)-N-(1-(4-((R)-2,6-dioxopiperidin-3-yl)-3,5-difluorophenethyl)piperidin-4-yl)-N-ethyl-1^1,2^6,7-trimethyl-3-oxo-5^2,5^3-dihydro-1^1H,5^1H-li-oxa-4-aza-5(2,1)-benzo[d]imidazola-2(2,4)-pyridina-1(4,5)-pyrazolacycloundecaphane-5^4-carboxamide], in experiment [1], the half-maximal degradation concentration (DC50) is 0.403 nM and the Dmax amounted to 87.7%. Besides, in experiment [2], half-maximal degradation (DC50) was put at 0.328 nM and the “Dmax (%)” value came out at 76.68%.
In experiment [1], `Cc1cc2cc(n1)-c1cnn(C)c1OCCC[C@@H](C)CN1/C(=N/C2=O)Nc2ccc(C(=O)N(C)[C@@H]3CCN(C4CN(c5cc(F)c([C@H]6CCC(=O)NC6=O)c(F)c5)C4)C[C@@H]3F)cc21` [Example 382, (R,E)-N—((3S,4R)-1-(1-(4-((R)-2,6-dioxopiperidin-3-yl)-3,5-difluorophenyl)azetidin-3-yl)-3-fluoropiperidin-4-yl)-N,1^1,2^6,7-tetramethyl-3-oxo-5^2,5^3-dihydro-1^1H,5^1H-11-oxa-4-aza-5(2,1)-benzo[d]imidazola-2(2,4)-pyridina-1(4,5)-pyrazolacycloundecaphane-5^5-carboxamide] had a 50% degradation concentration (DC50) of 0.233 nM and a Dmax of 87.5%. Further, in experiment [2], the DC50 was 0.617 nM and the “Dmax (%)” value is given as 86.76%.
Taken in the same sequence, the figures for `Cc1cc2cc(n1)-c1cnn(C)c1OCCC[C@@H](C)CN1/C(=N/C2=O)Nc2ccc(CCN3CCN(c4cc(F)c([C@H]5CCC(=O)NC5=O)c(F)c4)CC3)cc21` [Example 446, (R)-3-(2,6-difluoro-4-(4-(2-((R,E)-1^1,2^6,7-trimethyl-3-oxo-5^2,5^3-dihydro-1^1H,5^1H-11-oxa-4-aza-5(2,1)-benzo[d]imidazola-2(2,4)-pyridina-1(4,5)-pyrazolacycloundecaphane-5^6-yl)ethyl)piperazin-1-yl)phenyl)piperidine-2,6-dione] were 0.696 nM, 91.8%, 1.19 nM and 76.42%.
The corresponding values for `Cc1cc2cc(n1)-c1cnn(C)c1OCCC[C@@H](C)CN1/C(=N/C2=O)Nc2ccc(C(=O)N(C)[C@@H]3CCN(CCc4cc(F)c([C@H]5CCC(=O)NC5=O)c(F)c4)[C@@H](C)C3)cc21` [Example 258, (R,E)-N—((2S,4R)-1-(4-((R)-2,6-dioxopiperidin-3-yl)-3,5-difluorophenethyl)-2-methylpiperidin-4-yl) -N,1^1,2^6,7-tetramethyl-3-oxo-5^2,5^3-dihydro-1^1H,5^1H-11-oxa-4-aza-5(2,1)-benzo[d]imidazola-2(2,4)-pyridina-1(4,5)-pyrazolacycloundecaphane-5^6-carboxamide] are 0.381 nM, 88.2%, 0.577 nM and 81.96%.
The corresponding values for `Cc1cc2cc(n1)-c1cnn(C)c1OCCC[C@@H](C)CN1/C(=N/C2=O)Nc2ccc(C(=O)N[C@H]3CCN(CCc4cc(F)c([C@H]5CCC(=O)NC5=O)c(F)c4)C[C@H]3F)cc21` [Example 343, (R,E)-N—((3R,4S)-1-(4-((R)-2,6-dioxopiperidin-3-yl)-3,5-difluorophenethyl)-3-fluoropiperidin-4-yl)-1^1,2^6,7-trimethyl-3-oxo-5^2,5^3-dihydro-1^1H,5^1H-11-oxa-4-aza-5(2,1)-benzo[d]imidazola-2(2,4)-pyridina-1(4,5)-pyrazolacycloundecaphane-5^6-carboxamide] are 0.599 nM, 90.5%, 0.609 nM and 76.11%.
Regarding `Cc1cc2cc(n1)-c1cnn(C)c1OCCC[C@@H](C)CN1/C(=N/C2=O)Nc2ccc(C(=O)N(CCN3CCC(c4cc(F)c([C@H]5CCC(=O)NC5=O)c(F)c4)CC3)C(C)C)cc21` [Example 283, (R,E)-N-(2-(4-(4-((R)-2,6-dioxopiperidin-3-yl)-3,5-difluorophenyl)piperidin-1-yl)ethyl)-N-isopropyl-1^1,2^6,7-trimethyl-3-oxo-5^2,5^3-dihydro-1^1H,5^1H-11-oxa-4-aza-5(2,1)-benzo[d]imidazola-2(2,4)-pyridina-1(4,5)-pyrazolacycloundecaphane-5^6-carboxamide], in experiment [1], half-maximal degradation (DC50) was put at 0.494 nM and the Dmax stood at 80.2%. In experiment [2], the DC50 came out at 0.617 nM and the “Dmax (%)” value worked out at 72.52%.
Taken in the same sequence, the figures for `Cc1cc2cc(n1)-c1cnn(C)c1OCCC[C@@H](C)CN1/C(=N/C2=O)Nc2ccc(C(=O)N3CCC(NCCc4cc(F)c([C@H]5CCC(=O)NC5=O)c(F)c4)CC3)cc21` [Example 300, (R)-3-(2,6-difluoro-4-(2-((1-((R,E)-1^1,2^6,7-trimethyl-3-oxo-5^2,5′-dihydro-1^1H,5^1H-11-oxa-4-aza-5(2,1)-benzo[d]imidazola-2(2,4)-pyridina-1(4,5)-pyrazolacycloundecaphane-5^6-carbonyl)piperidin-4-yl)amino)ethyl)phenyl)piperidine-2,6-dione] were 0.653 nM, 88.2%, 1.48 nM and 73.74%.
In experiment [1], `Cc1cc2cc(n1)-c1cnn(C)c1OCCC[C@@H](C)CN1/C(=N/C2=O)Nc2ccc(CN3C4CCC3CN(C(=O)[C@@H]3CCN(c5cc(F)c([C@H]6CCC(=O)NC6=O)c(F)c5)C3)C4)cc21` [Example 187, (3R)-3-(2,6-difluoro-4-((3R)-3-(8-(((R,E)-1^1,2,7-trimethyl-3-oxo-5^2,5^3-dihydro-1^1H,5^1H-11-oxa-4-aza-5(2,1)-benzo[d]imidazola-2(2,4)-pyridina-1(4,5)-pyrazolacycloundecaphane-5^6-yl)methyl)-3,8-diazabicyclo[3.2.1]octane-3-carbonyl)pyrrolidin-1-yl)phenyl)piperidine-2,6-dione] displayed a DC50 of 1.01 nM and a Dmax of 86.1%. Also, in experiment [2], the DC50 is 1.8 nM and the “Dmax (%)” value amounted to 80.62%.
Taken in the same sequence, the figures for `Cc1cc2cc(n1)-c1cnn(C)c1OCCC[C@@H](C)CN1/C(=N/C2=O)Nc2ccc(N3CC[C@H](C(=O)N4CCN(c5cc(F)c([C@H]6CCC(=O)NC6=O)c(F)c5)CC4)C3)cc21` [Example 358, (R)-3-(2,6-difluoro-4-(4-((S)-1-((R,E)-1^1,2^4,7-trimethyl-3-oxo-5^2,5^3-dihydro-1^1H,5^1H-11-oxa-4-aza-5(2,1)-benzo[d]imidazola-2(2,4)-pyridina-1(4,5)-pyrazolacycloundecaphane-5^6-yl)pyrrolidine-3-carbonyl)piperazin-1-yl)phenyl)piperidine-2,6-dione] were 0.622 nM, 89.6%, 1.3 nM and 75.67%.

The values are drawn from patent publication US20240342292A1, “Compounds for the Degradation of EGFR Kinase” (BeiGene Switzerland GmbH, priority 2021, published 2024).
